Reference: patent US20230057930A1, “COMPOSITIONS FOR ALLEVIATING THE SYMPTOMS OF LOW ANTERIOR RESECTION SYNDROME BY TOPICAL ADMINISTRATION TO THE NEORECTUM” (RepoCeuticals A/S, priority 2020, published 2023)

Columns and labels:
rats = conditions: rat, cited from earlier work
human subjects = conditions: cited from earlier work
[1] = Storage stability of melatonin in aqueous solution / formulation; assay type: physicochemical; conditions: shelf life
Protocol: Dimethyl sulfoxide (DMSO): DMSO ((CH3)2SO), molecular weight 78.1 g/mol, is a colorless polar aprotic solvent for both polar and nonpolar compounds and is completely miscible with water and a wide range of organic solvents. It is well known as a solvent or solubilizer for melatonin, as are also ethanol, glycerin and propylene glycol. […] On the other hand, the solubility of melatonin in water is limited to approximately 2 g/L at 20° C. […] DMSO penetrates the skin and other epithelia without damaging them and can carry other compounds dissolved in it into the underlying cells and tissues. DMSO has been used in human subjects as a topical analgesic, a vehicle for the topical application of pharmaceuticals e.g. as a component of a transdermal drug delivery systems, as an anti-inflammatory agent, and as an antioxidant. It is also used as a cryopreservative for sperm and oocytes in fertility treatments as well as for stem cells and modified lymphocytes for cellular therapies for cancer. […] While DMSO has been examined for the treatment of numerous conditions and ailments, its only use approved by the U.S. Food and Drug Administration (FDA) has been for the symptomatic treatment of interstitial cystitis, in which 50% (w/w) aqueous DMSO is instilled into the urinary bladder. […]

[2] = cited from earlier work
patients with LARS = conditions: cited from earlier work

In the case of `C[S+](C)[O-]` [DMSO, Dimethyl sulfoxide], the “median 50% lethal oral dose (LD50 oral) relative to ethanol” value (rats; oral) is given as “twice as high as that of ethanol”, the “adverse effects in patients” value (human subjects; intravenously, doses up to 1 g/kg/day) is given as “without evidence of adverse effects” and the “effect on decomposition of melatonin in aqueous solutions” value [1] is given as “prevents the decomposition of melatonin”.
For `COc1ccc2[nH]cc(CCNC(C)=O)c2c1` [Melatonin, N-acetyl-5-methoxytryptamine], the “50% lethal oral dose (LD50 oral)” value (rats; in vivo, po) is given as over 3200 mg/kg, the solubility in water ([2]; 20° C.) is given as “approximately 2 g/L” and the “solubility in DMSO” value ([2]; room temperature (20 or 25° C.)) is given as at least 232 mg/mL. For the same compound, the “adverse effects in human subjects” value (human subjects; gram amounts oral per day for prolonged periods) was “without apparent adverse effects”.
For `Cn1cc(C(=O)[C@@H]2CCc3nc[nH]c3C2)c2ccccc21` [ramosetron], the “effect on symptoms of LARS” value (patients with LARS) is given as “alleviated the symptoms of urgency and reduced the number of bowel movements per day”.
In the case of glycofurol, the “effect on decomposition of melatonin in aqueous solutions” value [1] is reported as “reduces the decomposition of melatonin”.
